Experimental findings from patent publication US9056891B2, “Synthetic peptide inhibitors of Wnt pathway” (The United States of America, as represented by the …, priority 2010, dated 2015) are described below.

In one assay the test system is HT-29 cells. The class given is cell-based. Conditions: 48 h. Here is the method: (§1) HeLa, U3A, RKO, HCT-116, and HT-29 cells were exposed to the CT-HC-1, CT-HC-3, CT-HC-5, and CT-HC-8 inhibitors of Example 1 for 48 hours in medium containing 1% bovine fetal serum, and the resulting cell number was evaluated using a MTT assay. Each of these cell lines is relevant to the evaluation of Wnt signaling. Cervical carcinoma HeLa cells overexpress β-catenin (see, e.g., Lee et al., Int. J. Cancer, 124(2): 287-297 (2009); and Lee et al., Gynecol. Oncol., 109(2): 270-274 (2008)). β-catenin is activated in colon carcinoma RKO due to mutation in CDX2 (see, e.g., Dang et al., Oncogene, 20(35): 4884-4890 (2001)). Colon adenocarcinoma HCT116 has elevated mutated β-catenin; however, it was found in the past to be resistant to down regulation of β-catenin (see, e.g., Chan et al., Proc. Natl. Acad. Sci. USA, 99(12): 8265-8270 (2002); and Handeli et al., Mol. Cancer Ther., 7(3): 521-529 (2008)). Colon carcinoma HT-29 has truncated adenomatous polyposis coli (APC) protein, which is a common cause of canonical Wnt pathway activation in colon malignancies. Fibrosarcoma U3A cells are STAT1-negative and have uncharacterized status of Wnt pathway.
(§2) The ability of CT-HC-1 to inhibit growth and to kill cancer cells at different concentrations was further investigated in HeLa, U3A, RKO, HCT-116, and HT-29 cells. The cells were stained with Promega Non-Radioactive Cell Proliferation Assay Kit (MTT) according to the manufacture's protocol. The absorbance of the wells was determined at 544 nm by a FLUOstar/POLARstar Galaxy (BMG Lab Technologies GmbH) Microplate Reader. The assays were performed on control (C) and test (T) cells. Untreated cells were used as a control. Cellular responses were calculated from the data using the following formula: 100×[(T−T0)/(C−T0)] for T>T0 and 100×[(T−T0)/T0] for T<T0. T0 corresponds to cell density at the time of drug addition.

The test system of another assay is HeLa cells. It counts as cell-based. Particulars: 48 h. Here is the method:
as §1, §2

A further assay has as its system RKO cells. It counts as cell-based. Conditions: 48 h. As for the experimental part: as §1, §2
The next assay has as its system U3A cells. The class given is cell-based. Particulars: 48 h. As for the experimental part: as §1, §2
The subject of another assay is HCT-116 cells. It counts as cell-based, human. Conditions: 48 h. Here is the method:
as §1, §2

The next assay has as its system SW480 cells. The assay can be described thus: Toxicity (growth inhibition) for SW-480 cells. It counts as cell-based, human. Further details: unit not given here. As for the experimental part: (§3) Further optimization and testing of inhibitors was performed using this cell line. Table 5 presents toxicity data for select inhibitors for 4T1 cells and human colon cancer cell line SW-480, wherein GI50 is the concentration providing 50% growth inhibition and TGI is the total growth inhibition.

The next assay relates to 4T1 cells. Description: Toxicity (growth inhibition) for 4T1 cells. The class given is cell-based, mouse. As for the experimental part: To identify a mouse model for preclinical development of compounds, mouse cell lines were tested for (1) growth inhibition by the compounds and (2) the levels of constitutive Wnt signaling TCF-reporter activity using transfection of cell with TCF/LEF-responsive firefly luciferase construct. The data further confirmed that sensitivity to compounds correlated well with the levels of canonical Wnt signaling.
Based on the data, mouse breast cancer cell line 4T1 was selected for in vivo testing.
as §3

In assay [1] the test system is RKO, HT-29, HCT-116, SW-480, and SW-620 cells. The assay can be described thus: Cell viability of colon cancer cells (FIGS. 2A-C). Particulars: increasing concentrations, HT-29, HCT-116, SW-480, SW-620. It counts as cell-based. Here is the method: The concentration (μM) of the peptide inhibitor is indicated on the x-axis and the percent viability is indicated on the y-axis.
A similar experiment was performed using RKO, HT-29, HCT-116, SW-480, and SW-620 cells. Colorectal adenocarcinoma SW-480 and SW-620 cells have truncated APC protein, which—as discussed above—is a common cause of canonical Wnt pathway activation in colon malignancies.

Another assay concerns 4T1 breast cancer. Description: 4T1 breast cancer mouse model. It counts as in vivo. Conditions: 2 mg/kg subcutaneously three times a week, alone, after three injections. As for the experimental part:
CT-HC-11 has been tested in 4T1 breast cancer mouse model at two doses: 10 and 2 mg/kg injected subcutaneously three times a week alone or in combination with weekly gemcitabine (75 mg/kg).

*1 amine or outer side, *2 acyl side, *3 side chain or, on linkers, in order; H or OH if unused. Where a SMILES comes first, the peptide text is derived from it. Bridges are numbered along the chain shown (N, C = ends). Where no end group is shown, it is not given here. [ ]: non-standard residue; d: D form. The star is where a group is joined. X1 = CCCCCCCCCCCCC(C)(N[*:1])C(=O)[*:2]; Palmitoyl = CCCCCCCCCCCCCCCC(=O)*; Aib = CC(C)(N)C(=O)O

As usually defined, the GI50 is the concentration giving 50% growth inhibition. With `CCCCCCCCCCCCCCCC(=O)NCCCC[C@H](N)C(=O)N[C@@H](Cc1ccc(O)cc1)C(=O)N[C@@H](CCCCN)C(=O)N[C@@H](CCCCN)C(=O)N[C@@H](CCCNC(=N)N)C(=O)N[C@@H](CC(C)C)C(=O)N[C@@H](CO)C(=O)N[C@H](C(=O)N[C@@H](CCC(N)=O)C(=O)N[C@@H](CC(C)C)C(=O)N[C@H](C(=O)N[C@@H](CO)C(=O)N[C@@H](CO)C(=O)N[C@@H](CC(C)C)C(=O)N[C@@H](Cc1ccccc1)C(=O)N[C@@H](CCCNC(=N)N)C(=O)O)[C@@H](C)O)C(C)C` [CT-HC-3, Pal-ε-KYKKRLSVQLTSSLFR] (H-K(Palmitoyl)YKKRLSVQLTSSLFR-OH; N-terminus and C-terminus assumed), the GI50 was 2.8 ± 0.1 µM in the assay on HT-29 cells; 0.8 ± 0.08 µM in the assay on HeLa cells; 1.8 ± 0.15 µM in the assay with RKO cells; 0.65 ± 0.045 µM in the assay with U3A cells; 4 ± 0.3 µM in the assay on HCT-116 cells. The “SW480 cells TGI (total growth inhibition)” value in the assay on SW480 cells is listed as 0.5. For the same compound, in the assay with 4T1 cells, the 4T1 cells TGI (total growth inhibition) is > 5 µM. Further, in assay [1], the cell viability entry is reported as “decreased viability”.

Consider `CCCCCCCCCCCCC(C)(N)C(=O)N[C@@H](Cc1ccc(O)cc1)C(=O)N[C@@H](CCCCN)C(=O)N[C@@H](CCCCN)C(=O)N[C@@H](CCCNC(=N)N)C(=O)N[C@@H](CC(C)C)C(=O)N[C@@H](CO)C(=O)N[C@H](C(=O)N[C@@H](CCC(=O)O)C(=O)N[C@@H](CC(C)C)C(=O)N[C@H](C(=O)N[C@@H](CO)C(=O)N[C@@H](CO)C(=O)N[C@@H](CC(C)C)C(=O)N[C@@H](Cc1ccccc1)C(=O)N[C@@H](CCCNC(=N)N)C(=O)O)[C@@H](C)O)C(C)C` (stereo partly shown) [CT-HC-8, Doa-YKKRLSVELTSSLFR] (H-[X1]YKKRLSVELTSSLFR-OH; N-terminus and C-terminus assumed), for which the GI50 in the assay on HT-29 cells was > 5 µM; with HeLa cells, 3.2 ± 0.4 µM; with RKO cells, > 5 µM; in the assay on U3A cells it was > 5 µM; in the assay on HCT-116 cells, > 5 µM. Besides, the “SW480 cells TGI (total growth inhibition)” value in the assay on SW480 cells was 0.4. Besides, the 4T1 cells TGI (total growth inhibition) in the assay on 4T1 cells is > 5 µM. In assay [1], the cell viability result is “decreased viability”.

Turning to “Ac-YKKRLS+ELT+SLFR (Ac-YKKRLSXELTXSLFR; staple 7-11; not fully specified (residues 7, 11); printed as Ac-YKKRLS+ELT+SLFR) [CT-HC-9]”, the “SW480 cells TGI (total growth inhibition)” value with SW480 cells is >5. Also, the 4T1 cells TGI (total growth inhibition) with 4T1 cells is > 5 µM.

Regarding Cap-TRFLSSTLQVSLRKK-NH2 [CT-HC-22], the 4T1 cells TGI (total growth inhibition) with 4T1 cells is > 5 µM.

Lau-TRFLSSTLQVSLRKK-NH2 [CT-HC-23] returned a 4T1 cells TGI (total growth inhibition) with 4T1 cells of 3.5 µM.

For the compound Pal-Aib-TRFLSSTLQVSLRKK-NH2 [CT-HC-11], the 4T1 cells TGI (total growth inhibition) with 4T1 cells was determined as 3 µM. In the assay with 4T1 breast cancer, the tumor volume result was “significant reduction in tumor volume”.

On to “Pal-Aib-YKKRLSVELTSSLFR (Palmitoyl-[Aib]YKKRLSVELTSSLFR) [CT-HC-13]”, for which the 4T1 cells TGI (total growth inhibition) in the assay with 4T1 cells was > 5 µM.

For the compound “Pal-Aib-YKKRLSVQLTSSLFR (Palmitoyl-[Aib]YKKRLSVQLTSSLFR) [CT-HC-19]”, in the assay on 4T1 cells, the 4T1 cells TGI (total growth inhibition) is > 5 µM.

Regarding Pal-NKPQDYKKRLSVELTSSLFR [CT-HC-2], the “SW480 cells TGI (total growth inhibition)” value in the assay on SW480 cells is recorded as >5. For the same compound, the 4T1 cells TGI (total growth inhibition) with 4T1 cells is > 5 µM.

Pal-RFLSSTLQVSLRKK-NH2 [CT-HC-20]: in the assay with 4T1 cells, the 4T1 cells TGI (total growth inhibition) was > 5 µM.

In the case of Pal-TRFLSSTLEVSLRKKY-NH2 [CT-HC-10], the “SW480 cells TGI (total growth inhibition)” value with SW480 cells is 2.2. In the assay with 4T1 cells, this compound gave a 4T1 cells TGI (total growth inhibition) of 2 µM.

In the assay with 4T1 cells, Pal-TRFLSSTLQVSLRKK-NH2 [CT-HC-15] gave a 4T1 cells TGI (total growth inhibition) of 3.6 µM.

Consider “Pal-YKKRLSVELTSSLFR (Palmitoyl-YKKRLSVELTSSLFR) [CT-HC-12]”, for which the “SW480 cells TGI (total growth inhibition)” value with SW480 cells is >5. The 4T1 cells TGI (total growth inhibition) in the assay on 4T1 cells was > 5 µM.

“Pal-YKKRLSVELTSSLFRTEPMAW (Palmitoyl-YKKRLSVELTSSLFRTEPMAW) [CT-HC-16]”: the “SW480 cells TGI (total growth inhibition)” value in the assay with SW480 cells is >5. The 4T1 cells TGI (total growth inhibition) with 4T1 cells is > 5 µM.
